Assay results reported in patent publication US11001590B2, “Pyrazolopyrimidine derivatives” (BAYER ANIMAL HEALTH GMBH, priority 2016, dated 2021).

Columns and labels:
[1] = log P by HPLC on reversed phase columns (Method L0; [a] acidic, [b] neutral range); conditions: for logP (Method L0) [a]: HPLC on reversed phase columns, Method L0, [a] acidic range; for log P: HPLC on reversed phase columns (Method L0)
Description: Calibration was done with straight-chain alkan-2-ones (with 3 to 16 carbon atoms) with known log P values (measurement of log P values using retention times with linear interpolation between successive alkanones). Lambda-max-values were determined using UV-spectra from 200 nm to 400 nm and the peak values of the chromatographic signals.

C. elegans Slo-1a = C. elegans Slo-1a (Caenorhabditis elegans, UniProt Q95V25); assay: In vitro assay 1: C. elegans Slo-1a, action at a recombinant C. elegans CHO cell line (membrane potential measurement); conditions: for pE50: CHO cells expressing C. elegans Slo-1a, voltage sensitive dye, FLIPR Tetra, negative decadic logarithm of EC50
Chain of C. elegans Slo-1a (Q95V25 whole entry): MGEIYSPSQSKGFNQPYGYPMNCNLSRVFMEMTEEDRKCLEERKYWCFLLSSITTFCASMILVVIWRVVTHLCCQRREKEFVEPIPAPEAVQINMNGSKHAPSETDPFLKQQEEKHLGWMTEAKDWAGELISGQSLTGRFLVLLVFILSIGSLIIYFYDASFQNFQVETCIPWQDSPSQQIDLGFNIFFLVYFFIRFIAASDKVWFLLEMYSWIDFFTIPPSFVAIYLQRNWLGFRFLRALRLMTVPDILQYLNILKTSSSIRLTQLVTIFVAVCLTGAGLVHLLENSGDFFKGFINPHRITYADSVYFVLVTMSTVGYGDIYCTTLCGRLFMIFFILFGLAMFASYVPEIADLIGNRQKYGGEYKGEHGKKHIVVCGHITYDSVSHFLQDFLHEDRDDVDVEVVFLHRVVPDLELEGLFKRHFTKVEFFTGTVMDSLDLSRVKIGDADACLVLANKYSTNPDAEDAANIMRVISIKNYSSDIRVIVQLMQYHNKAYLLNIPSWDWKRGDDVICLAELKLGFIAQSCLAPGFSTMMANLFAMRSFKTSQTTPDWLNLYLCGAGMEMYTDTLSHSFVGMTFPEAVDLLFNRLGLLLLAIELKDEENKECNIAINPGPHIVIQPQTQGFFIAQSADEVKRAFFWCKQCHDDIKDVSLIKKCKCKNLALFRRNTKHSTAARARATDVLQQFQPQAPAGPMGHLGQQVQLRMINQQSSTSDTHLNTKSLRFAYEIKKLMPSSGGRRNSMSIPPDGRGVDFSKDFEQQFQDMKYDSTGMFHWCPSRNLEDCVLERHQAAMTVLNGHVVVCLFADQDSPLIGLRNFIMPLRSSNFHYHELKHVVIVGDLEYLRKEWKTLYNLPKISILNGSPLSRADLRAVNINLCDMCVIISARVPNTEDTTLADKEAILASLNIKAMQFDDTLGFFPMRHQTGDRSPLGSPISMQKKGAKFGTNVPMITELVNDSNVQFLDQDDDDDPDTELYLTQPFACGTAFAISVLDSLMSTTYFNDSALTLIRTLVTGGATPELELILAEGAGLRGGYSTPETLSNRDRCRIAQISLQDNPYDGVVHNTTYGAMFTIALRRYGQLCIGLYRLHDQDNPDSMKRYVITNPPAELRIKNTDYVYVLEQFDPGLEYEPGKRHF

[2] = last column of Table 1, column head not shown

In the case of `Cc1nn2c(C(C)C)c(C(=O)N[C@H]3CCCc4ccccc43)cnc2c1-c1ccc(Cl)c(C(=O)NC2CC2)c1` [Example 119], the “logP (Method L0) [a]” value [1] is reported as 4.07 and the pE50 (C. elegans Slo-1a) is reported as 5.5.
With `Cc1nn2c(C(C)C)c(C(=O)N[C@H]3CCc4ccccc43)cnc2c1-c1cccc(C[S+](C)[O-])c1` (stereo partly shown) [Example 380] the “log P” value [1] was 3.05 and the pE50 (C. elegans Slo-1a) was 6.
In the case of `Cc1nn2c(NC3CC3)c(C(=O)N[C@H]3CCOc4ccccc43)cnc2c1-c1cc(F)cc(F)c1` [Example 539], the “log P” value [1, 2] is reported as 4.46 and the pE50 (C. elegans Slo-1a) is reported as 6.8.
Compound `Cc1nn2c(C(C)C)c(C(=O)N[C@H]3CCCc4ccccc43)cnc2c1-c1ccc(C(C)C)cc1` [Example 126] has a chromatographic logP [1] of 6.01 and an EC50 (C. elegans Slo-1a) of 200 nM.
For `Cc1nn2c(C(C)C)c(C(=O)N[C@H]3CCOc4ccc(Cl)cc43)cnc2c1-c1ccc(F)c(F)c1` [Example 101], the “logP (Method L0) [a]” value [1] was 5.03 and the pE50 (C. elegans Slo-1a) was 6.6.
In the case of `Cc1nn2c(CN(C)C)c(C(=O)N[C@H]3CCOc4ccccc43)cnc2c1-c1cccc(Cl)c1Cl` [Example 523], the “log P” value [1, 2] is reported as 2.17 and the pE50 (C. elegans Slo-1a) is reported as 8.0.
For `Cc1nn2c(NC3CC3)c(C(=O)N[C@H]3CCOc4ccccc43)cnc2c1-c1cccc(Cl)c1Cl` [Example 546], the “log P” value [1, 2] was 4.32 and the pE50 (C. elegans Slo-1a) was 8.2.
Compound `CC(C)c1c(C(=O)N[C@H]2CCCc3ccccc32)cnc2c(-c3ccccc3Cl)c(C(F)(F)F)nn12` [Example 89] has a chromatographic logP [1] of 5.24 and an EC50 (C. elegans Slo-1a) of 631 nM.
For `CC(C)c1c(C(=O)N[C@H]2CCCc3ccccc32)cnc2c(-c3cccc(C(F)(F)F)c3)c(C(F)(F)F)nn12` [Example 56], the chromatographic logP [1] was 5.8 and the EC50 (C. elegans Slo-1a) was 398 nM.
In the case of `Cc1nn2c(C(C)C)c(C(=O)N[C@H]3CCCc4ccccc43)cnc2c1-c1cc(Cl)cc(Cl)c1` [Example 7], the chromatographic logP [1] is reported as 6.39 and the EC50 (C. elegans Slo-1a) is reported as 20 nM.
With `Cc1nn2c(C(C)C)c(C(=O)N[C@H]3CCc4ccccc43)cnc2c1-c1ccc(C#N)cc1` [Examples 301] the “log P” value [1] was 4.28.
For `Cc1c(C(=O)N[C@H]2CCc3ccccc32)cnc2c(-c3cccc(Cl)c3)cnn12` [Example 52], the “logP (Method L0) [a]” value [1] was 4.04.
With `CC(C)c1c(C(=O)N[C@H]2CCc3ccccc32)cnc2c(-c3ccccc3Cl)c(C3CC3)nn12` [Example 414] the “log P” value [1, 2] was 5.87.
With `Cc1c(C(=O)N[C@H]2CCCc3ccccc32)cnc2c(-c3ccccc3Cl)c(C(F)(F)F)nn12` [Example 90] the “logP (Method L0) [a]” value [1] was 4.5.
In the case of `Cc1c(C(=O)N[C@H]2CCc3ccccc32)cnc2c(-c3cccc(C(F)(F)F)c3)c(Cl)nn12` [Example 71], the “logP (Method L0) [a]” value [1] is reported as 4.73.
In the case of `Cc1nn2c(C(C)C)c(C(=O)N[C@H]3CCc4ccccc43)cnc2c1-c1ccc(OCC(F)(F)F)cc1` [Examples 336], the “log P” value [1] is reported as 4.91.
With `COc1c(C(=O)N[C@H]2CCOc3ccccc32)cnc2c(-c3ccc(F)c(F)c3)c(C)nn12` [Example 519] the “log P” value [1, 2] was 2.88.
For `O=C(N[C@H]1CCc2ccccc21)c1cnc2c(-c3ccccc3Cl)c(C(F)(F)F)nn2c1` [Example 84], the “logP (Method L0) [a]” value [1] was 4.15.
In the case of `Cc1ccc2c(c1)[C@@H](NC(=O)c1cnc3c(-c4cccc(Cl)c4)c(C)nn3c1C(C)C)CCC2` [Example 109], the “logP (Method L0) [a]” value [1] is reported as 5.9.
For `O=C(N[C@H]1CCc2ccccc21)c1cnc2c(-c3cccc(Cl)c3)c(C(F)(F)F)nn2c1` [Example 50], the “logP (Method L0) [a]” value [1] was 4.57.
With `Cc1ccc2c(c1)[C@@H](NC(=O)c1cnc3c(-c4ccc(F)c(F)c4)c(C)nn3c1C(C)C)CCC2` [Example 112] the “logP (Method L0) [a]” value [1] was 5.55.
For `Cc1nn2c(C(C)C)c(C(=O)N[C@H]3CCc4ccccc43)cnc2c1-n1cccn1` [Example 426], the “log P” value [1, 2] was 3.29.
In the case of `COc1cccc(-c2c(C)nn3c(C(F)(F)F)c(C(=O)N[C@H]4CCc5ccccc54)cnc23)c1` [Examples 386], the “log P” value [1] is reported as 4.34.
With `CC(C)c1c(C(=O)N[C@H]2CCc3ccccc32)cnc2c(-c3ccc(Cl)cc3)c(C(F)(F)F)nn12` [Example 49] the “logP (Method L0) [a]” value [1] was 5.48.
In the case of `Cc1nn2c(C(F)(F)F)c(C(=O)N[C@H]3CCc4ccccc43)cnc2c1-c1cccc(Cl)c1` [Examples 382], the “log P” value [1] is reported as 4.97.
With `Cc1c(C(=O)N[C@H]2CCCc3ccccc32)cnc2c(-c3cccc(C(F)(F)F)c3)c(C(F)(F)F)nn12` [Example 83] the “logP (Method L0) [a]” value [1] was 5.03.
For `O=C(N[C@H]1CCc2ccccc21)c1cnc2c(-c3cc(Cl)cc(Cl)c3)cnn2c1` [Example 47], the “logP (Method L0) [a]” value [1] was 4.74.
With `Cc1nn2c(C(F)(F)F)c(C(=O)N[C@H]3CCc4ccccc43)cnc2c1-c1ccccc1Cl` [Example 412] the “log P” value [1, 2] was 4.43.
For `CC(C)Sc1nn2c(C(C)C)c(C(=O)N[C@H]3CCc4ccccc43)cnc2c1-c1cc(Cl)cc(Cl)c1` [Example 199], the “log P” value [1] was 7.34.
For `Cc1c(C(=O)N[C@H]2CCCc3ccccc32)cnc2c(-c3cccc(Cl)c3)cnn12` [Example 44], the “logP (Method L0) [a]” value [1] was 4.33.
With `CC(C)c1c(C(=O)N[C@H]2CCc3ccccc32)cnc2c(-c3cccc(C(F)(F)F)c3)c(C3CC3)nn12` [Example 415] the “log P” value [1, 2] was 5.94.
With `Cc1c(C(=O)N[C@H]2CCc3ccccc32)cnc2c(-c3cc(Cl)cc(Cl)c3)cnn12` [Example 65] the “logP (Method L0) [a]” value [1] was 4.84.
For `CC(C)Sc1nn2c(C(C)C)c(C(=O)N[C@H]3CCOc4ccccc43)cnc2c1-c1cc(Cl)cc(Cl)c1` [Example 198], the “log P” value [1] was 7.
In the case of `O=C(N[C@H]1CCc2ccccc21)c1cnc2c(-c3cc(Cl)cc(Cl)c3)c(Cl)nn2c1` [Example 67], the “logP (Method L0) [a]” value [1] is reported as 5.39.
With `COc1c(C(=O)N[C@H]2CCOc3ccccc32)cnc2c(-c3c(F)cccc3Cl)c(C)nn12` [Example 514] the “log P” value [1, 2] was 4.93.
In the case of `Cc1ccc2c(c1)[C@@H](NC(=O)c1cnc3c(-c4ccc(Cl)cc4)c(C)nn3c1C(C)C)CCC2` [Example 113], the “logP (Method L0) [a]” value [1] is reported as 5.88.
With `Cc1c(C(=O)N[C@H]2CCc3ccccc32)cnc2c(-c3cccc(Cl)c3)c(Cl)nn12` [Example 75] the “logP (Method L0) [a]” value [1] was 4.6.
With `Cc1nn2c(C(F)(F)F)c(C(=O)N[C@H]3CCc4ccccc43)cnc2c1-c1cccc(C(F)(F)F)c1` [Examples 384] the “log P” value [1] was 5.04.
For `CC(C)c1c(C(=O)N[C@H]2CCCc3ccccc32)cnc2c(-c3cc(Cl)cc(Cl)c3)c(Cl)nn12` [Example 64], the “logP (Method L0) [a]” value [1] was 6.69.
In the case of `COc1c(C(=O)N[C@H]2CCc3ccccc32)cnc2c(-c3c(F)cccc3Cl)c(C)nn12` [Example 513], the “log P” value [1, 2] is reported as 2.96.
In the case of `Cc1nn2c(C(C)C)c(C(=O)N[C@H]3CCc4ccccc43)cnc2c1-c1cnn(CCN2CCOCC2)c1` [Examples 397], the “log P” value [1, 2] is reported as 1.81.
With `Cc1nn2c(C(C)C)c(C(=O)N[C@H]3CCOc4ccccc43)cnc2c1-c1ccc2c(c1)CCC2=O` [Example 250] the “log P” value [1] was 3.75.
With `Cc1nn2c(C(C)C)c(C(=O)N[C@H]3CCOc4ccc(Cl)cc43)cnc2c1-c1ccc(Cl)cc1` [Example 106] the “logP (Method L0) [a]” value [1] was 5.36.
For `Cc1c(C(=O)N[C@H]2CCCc3ccccc32)cnc2c(-c3cccc(C(F)(F)F)c3)c(Cl)nn12` [Example 69], the “logP (Method L0) [a]” value [1] was 5.03.
With `Cc1c(C(=O)N[C@H]2CCc3ccccc32)cnc2c(-c3cc(Cl)cc(Cl)c3)c(Cl)nn12` [Example 66] the “logP (Method L0) [a]” value [1] was 5.47.
In the case of `Cc1nn2c(C(F)(F)F)c(C(=O)N[C@H]3CCc4ccccc43)cnc2c1-c1cccc(N(C)C)c1` [Examples 385], the “log P” value [1] is reported as 4.1.
In the case of `Cc1c(C(=O)N[C@H]2CCCc3ccccc32)cnc2c(-c3cccc(Cl)c3)c(C(F)(F)F)nn12` [Example 86], the “logP (Method L0) [a]” value [1] is reported as 4.94.
In the case of `CC(C)c1c(C(=O)N[C@H]2CCc3ccccc32)cnc2c(-c3cnc(F)c(F)c3)c(C(F)(F)F)nn12` [Example 163], the “logP (Method L0) [a]” value [1] is reported as 4.76.
